Assay results from publication PMC7396987, “Biological Activity of Pseudovitamin B12 on Cobalamin-Dependent Methylmalonyl-CoA Mutase and Methionine Synthase in Mammalian Cultured COS-7 Cells” (Molecules, 2020).

Target: T1, human MS (hMS; recombinant FLAG-tagged methionine synthase) (Homo sapiens, UniProt Q99707)
T1 construct: gene MTR; full-length ORF from human brain cerebral cortex cDNA in p3xFLAG-Myc-CMV (p3xFLAG-hMS), N-terminal 3xFLAG tag kept; expressed in COS-7 cells, apoenzyme in cell homogenate (low endogenous monkey MS background)
Test: activation of apo-MS in cell homogenate, HPLC activity assay, saturation fit
Assay type: biochemical
Conditions: cobalamin reduced by titanium citrate; substrate 5-methyltetrahydrofolate; homogenate of MS cDNA-transfected COS-7 cells grown without OH-Cbl; read-out: apparent Kd

T1 sequence (Q99707 2-1265 limits assumed): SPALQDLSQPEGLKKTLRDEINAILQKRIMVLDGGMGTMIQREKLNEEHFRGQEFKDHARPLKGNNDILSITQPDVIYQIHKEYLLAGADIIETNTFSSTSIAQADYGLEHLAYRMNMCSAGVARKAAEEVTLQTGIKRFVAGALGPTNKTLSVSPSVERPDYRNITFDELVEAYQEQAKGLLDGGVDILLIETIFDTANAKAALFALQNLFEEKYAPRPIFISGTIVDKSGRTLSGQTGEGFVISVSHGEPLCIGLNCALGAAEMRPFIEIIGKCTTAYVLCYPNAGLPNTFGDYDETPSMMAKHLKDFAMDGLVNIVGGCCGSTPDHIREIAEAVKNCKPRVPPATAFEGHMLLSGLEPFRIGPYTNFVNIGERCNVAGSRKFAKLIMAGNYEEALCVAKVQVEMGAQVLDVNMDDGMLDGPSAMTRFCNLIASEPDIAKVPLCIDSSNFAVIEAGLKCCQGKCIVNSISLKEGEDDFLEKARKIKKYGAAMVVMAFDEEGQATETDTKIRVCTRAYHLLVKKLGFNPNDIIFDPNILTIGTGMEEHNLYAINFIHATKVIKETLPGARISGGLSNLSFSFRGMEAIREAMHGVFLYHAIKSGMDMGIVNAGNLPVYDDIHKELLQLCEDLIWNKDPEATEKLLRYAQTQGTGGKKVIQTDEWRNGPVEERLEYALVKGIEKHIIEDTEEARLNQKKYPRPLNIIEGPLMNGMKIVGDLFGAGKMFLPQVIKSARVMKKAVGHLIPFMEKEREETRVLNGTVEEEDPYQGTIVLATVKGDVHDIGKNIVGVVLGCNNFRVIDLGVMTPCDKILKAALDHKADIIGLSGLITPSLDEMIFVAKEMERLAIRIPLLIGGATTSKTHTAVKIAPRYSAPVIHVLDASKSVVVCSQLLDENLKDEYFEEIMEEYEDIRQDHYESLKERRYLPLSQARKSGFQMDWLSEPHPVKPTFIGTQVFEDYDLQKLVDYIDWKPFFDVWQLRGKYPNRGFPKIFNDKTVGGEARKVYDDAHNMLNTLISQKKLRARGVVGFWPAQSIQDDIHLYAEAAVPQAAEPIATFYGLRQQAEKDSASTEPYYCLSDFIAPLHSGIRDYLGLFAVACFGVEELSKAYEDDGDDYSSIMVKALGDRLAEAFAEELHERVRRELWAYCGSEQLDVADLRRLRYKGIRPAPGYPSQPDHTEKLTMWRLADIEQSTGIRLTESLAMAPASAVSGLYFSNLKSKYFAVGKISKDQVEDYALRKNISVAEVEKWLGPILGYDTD

Kd: ~26.3 µM
Substance: (Ade)OH-Cba [compound 6]
